Measured values as given in EP4656642A1, “ESTROGEN RECEPTOR PROTEOLYSIS TARGETING CHIMERA COMPOUND AND USE THEREOF” (GAN & LEE PHARM CO., LTD, priority 2023, dated 2024).

Experiments:
Format in all cases: cell-based
ERα [1] = target: T1, ERα (Homo sapiens, UniProt P03372); assay: Degradation of ERα in MCF-7 cells (immunoblotting, 4 h)
T1 sequence (P03372 1-595): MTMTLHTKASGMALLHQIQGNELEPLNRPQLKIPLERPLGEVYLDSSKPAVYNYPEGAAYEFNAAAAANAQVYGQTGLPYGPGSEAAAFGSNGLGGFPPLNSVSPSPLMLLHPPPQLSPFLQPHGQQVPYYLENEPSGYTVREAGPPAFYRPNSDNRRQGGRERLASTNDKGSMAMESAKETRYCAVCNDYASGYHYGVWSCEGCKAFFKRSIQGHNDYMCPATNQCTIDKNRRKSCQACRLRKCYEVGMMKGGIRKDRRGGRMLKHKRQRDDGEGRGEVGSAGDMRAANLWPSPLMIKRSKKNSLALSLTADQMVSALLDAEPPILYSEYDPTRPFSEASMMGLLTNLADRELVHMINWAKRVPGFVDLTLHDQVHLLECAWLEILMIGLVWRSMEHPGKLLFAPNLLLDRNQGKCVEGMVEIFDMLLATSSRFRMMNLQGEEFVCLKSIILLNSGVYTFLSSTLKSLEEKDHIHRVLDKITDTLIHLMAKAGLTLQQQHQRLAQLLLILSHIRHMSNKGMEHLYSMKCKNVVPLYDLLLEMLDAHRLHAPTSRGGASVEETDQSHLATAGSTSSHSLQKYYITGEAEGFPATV
Protocol: MCF-7 cells were inoculated into 6-well plates at a density of 3×10^5 cells/well and cultured at 37°C, 5% CO2 for 24h. After the cells were attached to the wall, 1µL of the compound solution in dimethyl sulfoxide (final concentration 0.15-1000nM) was added and continued to be cultured in incubator at 37°C with 5% CO2 for 4 h. After 4 h, the culture medium was discarded, and each well was washed once with pre-cooled 1×DPBS, and the cells were lysed with a mixture of 50 µL of RIPA lysis buffer (P0013B, Beyotime) and 1× protease inhibitor (P1005, Beyotime), and then centrifuged at 14,000 g for 30 min at 4°C after resting on ice for 20 min, and the supernatant was carefully collected to detect the protein level of ERα by protein immunoblotting (Immunoblotting).
Protein immunoblotting: The total protein concentration in the collected cell lysate supernatant was determined by BCA Protein Concentration Assay Kit (Enhanced) (P0009, Beyotime). According to the total protein concentration detected by BCA, the protein was adjusted to 1 µg/µL with RIPA lysis buffer and 5× SDS-PAGE protein loading buffer (MB01015, Genscript), and the protein was denatured by water bath at 95°C for 5 min, and then centrifuged after denaturation to enrich the condensate on the wall of the centrifuge tubes as a loading sample. […] At the end of electrophoresis, the proteins in the SDS-PAGE gels were transferred to a PVDF membrane at a constant voltage of 100 V for 60 min. After that, the PVDF membrane corresponding to ERα protein and internal reference protein was cut out and incubated in 1×QµickBlock blocking solution (P0252, Beyotime) for 30 min at room temperature on a shaker. […] Protein profiles were analyzed by Image Studio Lite analysis software for grayscale values. Grayscale correction values were calculated for each sample using the Formula: corrected grayscale value = grayscale value of the target protein /corresponding grayscale value of the internal reference. The degradation rate for the compounds was then calculated by comparing the corrected grayscale values of the compound group to the control group. Table 7 Degradation rate (%) of ERα by the PROTAC compounds of the present disclosure and positive control sample in MCF-7 cells

MCF-7 cells = assay: Inhibition of cell proliferation of MCF-7 cells (CCK-8, 9 days); details: treated for 9 days, CCK-8 kit (Table 6)
From the text: Test Example 4 Inhibitory effect of the PROTAC compounds disclosed in the present disclosure on cell proliferation of MCF-7 cells
The complete medium required for MCF-7 cells (source ATCC) was DMEM (gibco, Product number :11995-065) basal medium containing 10% fetal bovine serum. MCF-7 cells were inoculated in 96-well plates at a density of 800 cells/well, and different concentrations of the PROTAC compounds 1-55 provided in the embodiments of the present disclosure and a positive control sample ARV-471 (source: Innochem) were prepared to treat cells, and cells were treated at 37°C in a cell culture incubator with 5% CO2 for 9 days. Cell viability was detected using a CCK -8 kit (Beyotime , Product number: C0040) according to the manufacturer's instruction. […] Table 5 IC50 values for inhibition of the proliferation of MCF-7 cells by the PROTAC compounds of the present disclosure and positive control sample

ERα [2] = target: T1, ERα; assay: Degradation of ERα in T-47D cells (immunoblotting, 4 h); parameters: host or cells: T-47D
Protocol: T-47D cells were inoculated into 6-well plates at a density of 3×10^5 cells/well and cultured at 37°C, 5% CO2 for 24 h. After the cells were attached to the wall, 1µL of the compound solution in dimethyl sulfoxide (final concentration 0.15-1000 nM) was added and continued to be cultured in the incubator with 5% CO2 at 37°C for 4 h. After 4 h, the culture medium was discarded, and each well was washed once with pre-cooled 1×DPBS, and the cells were lysed with a mixture of 50 µL of RIPA lysis buffer (P0013B, Beyotime) and 1× protease inhibitor (P1005, Beyotime), and then centrifuged at 14,000 g for 30 min at 4°C after resting on ice for 20 min, and the supernatant was carefully collected to detect the protein level of ERα by protein immunoblotting (Immunoblotting).

| Compound | Degradation rate (%) of ERα in MCF-7 cells (ERα [1]; 1nM compound) [%] | Degradation rate (%) of ERα in MCF-7 cells (ERα [1]; 10nM compound) [%] | IC50 (MCF-7 cells) [nM] | Degradation rate (%) of ERα in T-47D cells (ERα [2]; 1nM compound) [%] | Degradation rate (%) of ERα in T-47D cells (ERα [2]; 10nM compound) [%] |
| --- | --- | --- | --- | --- | --- |
| O=C1CCC(N2Cc3c(ccc4c3OCC43CCN(C(=O)CN4CCC(Oc5ccc([C@@H]6c7ccc(O)cc7CC[C@@H]6c6ccccc6)cc5)CC4)CC3)C2=O)C(=O)N1 (stereo partly shown) [H60] | 38 | 35 | 106 | 41 | 37 |
| O=C1CCC(N2Cc3c(ccc4c3OCC43CCN(C4CN(C5CCN(c6ccc([C@@H]7c8ccc(O)cc8CC[C@@H]7c7ccccc7)cc6)CC5)C4)CC3)C2=O)C(=O)N1 (stereo partly shown) [A58] | 42 | 69 | 12.8 | 35 | 71 |
| O=C1CCC(N2Cc3c(ccc4c3OCC43CCN(C(=O)CN4CCN(C(=O)C5CCN(c6ccc([C@@H]7c8ccc(O)cc8CC[C@@H]7c7ccccc7)cc6)CC5)CC4)CC3)C2=O)C(=O)N1 (stereo partly shown) [K43] | 23 | 69 | 3070 | 66 | 84 |
| O=C1CCC(N2Cc3c(ccc4c3OCC43CCN(C4CCN(C(=O)C5CCN(c6ccc(C7c8ccc(O)cc8CCC7c7ccccc7)cc6)CC5)CC4F)CC3)C2=O)C(=O)N1 (stereo not shown) [G12] | 24 | 57 | 9.27 | 47 | 81 |
| O=C1CCC(N2Cc3c(ccc4c3OC3(CC4)CCN(C4CC5(CCN(c6ccc([C@@H]7c8ccc(O)cc8CC[C@@H]7c7ccccc7)cc6)CC5)C4)CC3)C2=O)C(=O)N1 (stereo partly shown) [L21] | -11 | -17 | 91 | 26 | 21 |
| O=C1CCC(N2Cc3c(ccc4c3OCC43CCN(CC(=O)N4CCC5(CC4)CCN(c4ccc([C@@H]6c7ccc(O)cc7CC[C@@H]6c6ccccc6)cc4)C5)CC3)C2=O)C(=O)N1 (stereo partly shown) [A72] | 33 | 64 | 6840 | 39 | 51 |
| O=C1CCC(N2Cc3c(ccc4c3OCC43CCN(C4CC5(CCN(C6CCN(c7ccc([C@@H]8c9ccc(O)cc9CC[C@@H]8c8ccccc8)cc7)CC6)CC5)C4)CC3)C2=O)C(=O)N1 (stereo partly shown) [K4] | 48 | 53 | < 0.256 | 42 | 72 |
| COC1(CN2CCC3(CC2)COc2c3ccc3c2CN(C2CCC(=O)NC2=O)C3=O)CCN(C(=O)C2CCN(c3ccc([C@@H]4c5ccc(O)cc5CC[C@@H]4c4ccccc4)cc3)CC2)CC1 (stereo partly shown) [D6] | 38 | 59 | 33000 | 59 | 84 |
| O=C1CCC(N2C(=O)c3cc4c(cc3C2=O)OC2(CCN(C3CCN(C5CN(c6ccc([C@@H]7c8ccc(O)cc8CC[C@@H]7c7ccccc7)cc6)C5)CC3)CC2)C4)C(=O)N1 (stereo partly shown) [A59] | 11 | 11 | 905 | 42 | 50 |
| O=C1CCC(N2Cc3c(ccc4c3OCC43CCN(C4CC5(CCN(C6CC7(CCN(c8ccc([C@@H]9c%10ccc(O)cc%10CC[C@@H]9c9ccccc9)cc8)CC7)C6)CC5)C4)CC3)C2=O)C(=O)N1 (stereo partly shown) [G8] | 29 | 73 | 749 | 45 | 81 |
| O=C1CCC(N2Cc3c(ccc4c3OCC43CCN(C(=O)[C@H]4C[C@@H](OC5CCN(c6ccc([C@@H]7c8ccc(O)cc8CC[C@@H]7c7ccccc7)cc6)CC5)C4)CC3)C2=O)C(=O)N1 (stereo partly shown) [H61] | 37 | 40 | 4020 | 63 | 76 |

Now from value to compound:

| Degradation rate (%) of ERα in MCF-7 cells (ERα [1]; 1nM compound) [%] | Degradation rate (%) of ERα in MCF-7 cells (ERα [1]; 10nM compound) [%] | IC50 (MCF-7 cells) [nM] | Degradation rate (%) of ERα in T-47D cells (ERα [2]; 1nM compound) [%] | Degradation rate (%) of ERα in T-47D cells (ERα [2]; 10nM compound) [%] | Compound |
| --- | --- | --- | --- | --- | --- |
| 60 | 56 | 10.5 | 55 | 68 | C[C@@H]1CN(C(=O)C2CCN(c3cc(F)c(C4c5ccc(O)cc5C[C@@H](C)N4CC(F)F)c(F)c3)CC2)CCC1N1CCC2(CC1)COc1c2ccc2c1CN(C1CCC(=O)NC1=O)C2=O (stereo partly shown) [I5] |
| 22 | 45 | 49.7 | 51 | 69 | C[C@@H]1Cc2c(ccc3[nH]ncc23)C(c2c(F)cc(N3CCC4(CCC(N5CCC6(CC5)COc5c6ccc6c5CN(C5CCC(=O)NC5=O)C6=O)CC4)CC3)cc2F)N1CC(F)F (stereo partly shown) [G20] |
| -7 | 55 | 16.3 | 38 | 79 | C[C@@H]1Cc2c([nH]c3ccccc23)[C@@H](c2c(F)cc(N3CCC4(CCN(C(=O)CN5CCC6(CC5)COc5c6ccc6c5CN(C5CCC(=O)NC5=O)C6=O)CC4)CC3)cc2F)N1CC(F)F (stereo partly shown) [A118] |
| 40 | 67 | 14.9 | 41 | 68 | C[C@@H]1Cc2cc(O)ccc2C(c2c(F)cc(N3CCC4(CC3)CC(N3CCC(N5CCC6(CC5)COc5c6ccc6c5CN(C5CCC(=O)NC5=O)C6=O)[C@@H](F)C3)C4)cc2F)N1CC(F)F (stereo partly shown) [I3] |
| 22 | 55 | 10.8 | 52 | 82 | C[C@@H]1Cc2c([nH]c3ccccc23)[C@@H](c2c(F)cc(N3CCC(C(=O)N4CCC(N5CCC6(CC5)COc5c6ccc6c5CN(C5CCC(=O)NC5=O)C6=O)[C@H](F)C4)CC3)cc2F)N1CC(F)F (stereo partly shown) [D9] |
| 46 | 75 | 153 | 49 | 79 | CN(CC(=O)N1CCC2(CC1)COc1c2ccc2c1CN(C1CCC(=O)NC1=O)C2=O)C1CCC2(CC1)CCN(c1ccc([C@@H]3c4ccc(O)cc4CC[C@@H]3c3ccccc3)cc1)CC2 (stereo partly shown) [H51] |
